Our source for the Ki and IC50 values is ChEMBL document CHEMBL1159113, “Investigation of Beckett-Casy model 1: synthesis of novel 16,17-seco-naltrexone derivatives and their pharmacology” (Bioorg Med Chem Lett, 2010).

Sequence of Mu-type opioid receptor (P97266 whole entry): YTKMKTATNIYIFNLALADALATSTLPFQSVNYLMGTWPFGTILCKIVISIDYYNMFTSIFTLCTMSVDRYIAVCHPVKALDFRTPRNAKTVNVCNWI

Biological target in the first test: not listed separately
Kind of test: Displacement of [3H]NTI from delta opioid receptor in guinea pig forebrain. Also noted: species or system Cavia porcellus. (In general: In a radioligand displacement assay an active substance lowers the binding of a labelled ligand.)
By Ki is commonly meant a measure of affinity in units of concentration, obtained from inhibition or displacement. In turn, `CC[C@]12c3c4ccc(O)c3O[C@H]1C(=O)CC[C@@]2(O)[C@H](N(C)CC1CC1)C4` displayed a Ki of 77.6 nM.

As for `CC[C@]12c3c4ccc(O)c3O[C@H]1C(=O)CC[C@@]2(O)[C@H](NCC1CC1)C4`, the Ki is 24.1 nM.

By IC50 is commonly meant the concentration that inhibits the measured activity by half. Molecule `CN(CC1CC1)[C@@H]1Cc2ccc(O)c3c2[C@@]2(CCO3)CC(=O)CC[C@@]12O` had an IC50 above 1000 nM.

The molecule `C=C[C@]12c3c4ccc(O)c3O[C@H]1C(=O)CC[C@@]2(O)[C@H](NCC1CC1)C4` returned a Ki of 4.73 nM. This counts as single-digit nanomolar.

As for `CN(CC1CC1)C1Cc2ccc(O)c3c2[C@@]2(CCn4ccnn4)[C@@H](O3)C(=O)CC[C@@]12O` (stereo partly specified), the IC50 is above 1000 nM.

For `C=C[C@]12c3c4ccc(O)c3O[C@H]1C(=O)CC[C@@]2(O)[C@H](N(C)CC1CC1)C4`, the Ki is 39.7 nM.

As to `CN(CC1CC1)[C@@H]1Cc2ccc(O)c3c2[C@]24CCO[C@]12CCC(=O)[C@@H]4O3`, affinity was put at a Ki of 43.2 nM.

A further test has as its target Mu-type opioid receptor (Cavia porcellus, UniProt P97266). Kind of test: Displacement of [3H]DAMGO from mu opioid receptor in guinea pig forebrain.
In the case of `CC[C@]12c3c4ccc(O)c3O[C@H]1C(=O)CC[C@@]2(O)[C@H](N(C)CC1CC1)C4`, the IC50 was above 1000 nM.

`CC[C@]12c3c4ccc(O)c3O[C@H]1C(=O)CC[C@@]2(O)[C@H](NCC1CC1)C4` registered a Ki of 26.3 nM.

With `CN(CC1CC1)[C@@H]1Cc2ccc(O)c3c2[C@@]2(CCO3)CC(=O)CC[C@@]12O`, the IC50 was above 1000 nM.

For `C=C[C@]12c3c4ccc(O)c3O[C@H]1C(=O)CC[C@@]2(O)[C@H](NCC1CC1)C4`, the affinity corresponds to a Ki of 8.6 nM.

The molecule `CN(CC1CC1)C1Cc2ccc(O)c3c2[C@@]2(CCn4ccnn4)[C@@H](O3)C(=O)CC[C@@]12O` (stereo partly specified) registered an IC50 above 1000 nM.

In the case of `C=C[C@]12c3c4ccc(O)c3O[C@H]1C(=O)CC[C@@]2(O)[C@H](N(C)CC1CC1)C4`, the Ki is 26.4 nM.

For `CN(CC1CC1)[C@@H]1Cc2ccc(O)c3c2[C@]24CCO[C@]12CCC(=O)[C@@H]4O3`, the Ki was found to be 24 nM.

For another test, the target named is Kappa-type opioid receptor (Cavia porcellus, UniProt P41144). Kind of test: Displacement of [3H]U69,593 from kappa opioid receptor in guinea pig cerebellum. Type of test: tissue-based.
Sequence of Kappa-type opioid receptor (P41144 whole entry): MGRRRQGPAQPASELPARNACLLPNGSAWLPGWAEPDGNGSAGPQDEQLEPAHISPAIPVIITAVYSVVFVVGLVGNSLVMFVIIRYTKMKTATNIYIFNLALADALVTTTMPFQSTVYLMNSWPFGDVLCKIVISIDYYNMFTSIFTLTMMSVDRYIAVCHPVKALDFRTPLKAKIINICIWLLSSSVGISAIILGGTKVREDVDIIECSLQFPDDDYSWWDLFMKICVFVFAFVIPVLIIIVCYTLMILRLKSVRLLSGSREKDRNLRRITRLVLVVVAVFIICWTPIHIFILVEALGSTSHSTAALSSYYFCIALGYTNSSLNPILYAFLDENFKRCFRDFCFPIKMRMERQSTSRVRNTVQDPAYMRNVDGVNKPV
With `CC[C@]12c3c4ccc(O)c3O[C@H]1C(=O)CC[C@@]2(O)[C@H](N(C)CC1CC1)C4`, the IC50 was above 1000 nM.

As to `CC[C@]12c3c4ccc(O)c3O[C@H]1C(=O)CC[C@@]2(O)[C@H](NCC1CC1)C4`, the affinity, expressed as Ki, was 275 nM.

Turning to `CN(CC1CC1)[C@@H]1Cc2ccc(O)c3c2[C@@]2(CCO3)CC(=O)CC[C@@]12O`, the IC50 is above 1000 nM.

`C=C[C@]12c3c4ccc(O)c3O[C@H]1C(=O)CC[C@@]2(O)[C@H](NCC1CC1)C4` showed a Ki of 193 nM.

For the molecule `CN(CC1CC1)C1Cc2ccc(O)c3c2[C@@]2(CCn4ccnn4)[C@@H](O3)C(=O)CC[C@@]12O` (stereo partly specified), the IC50 was above 1000 nM.

Turning to `C=C[C@]12c3c4ccc(O)c3O[C@H]1C(=O)CC[C@@]2(O)[C@H](N(C)CC1CC1)C4`, the Ki was 200 nM.

For `CN(CC1CC1)[C@@H]1Cc2ccc(O)c3c2[C@]24CCO[C@]12CCC(=O)[C@@H]4O3`, the IC50 was above 1000 nM.
